Results: patent US11274098B2, “Tricyclic compounds for use in treatment of proliferative disorders” (ARGONAUT THERAPEUTICS LIMITED, priority 2017, dated 2022)

The molecules below were run against human PRMT5/MEP50 (Homo sapiens (Human), UniProt O14744) (assay: PRMT5 chemiluminescent assay). Details: human PRMT5/MEP50 expressed in HEK293 cells; biotinylated histone peptide substrate; 60 min reaction; chemiluminescent readout.
Format: biochemical
Description: A PRMT5 chemiluminescent assay was used to measure the […] activity of PRMT5. Biotinylated histone peptides were synthesized and attached to 384-well plates. Compound serial dilutions were performed and added to the assay plate. Histone H4 monomethyl R^3 antibody was obtained from Abcam. A master mix for each well was prepared and human PRMT5/MEP50 (expressed in HEK293 cells) diluted in assay buffer to a concentration of 5 ng/μL. The reaction was incubated and slowly rotated for 60 minutes at the point of PRMT5/MEP50 addition. The supernatant from the wells was removed and blocking buffer was added to each well and rotated for 10 minutes. The primary antibody was diluted and added to every well for 60 minutes, before it was removed and the wells washed. The horse radish peroxidase (HRP)-coupled secondary antibody was diluted and added to each well with an incubation time of 30 minutes. The HRP chemiluminescent substrate was added to every well. The plate was read on a Flourstar Omega BMG Labtech instrument (Ortenberg, Germany) and the analysis of IC50 was performed using the Flourstar Omega BMG Labtech software.

Sequence of human PRMT5/MEP50 (O14744 whole entry): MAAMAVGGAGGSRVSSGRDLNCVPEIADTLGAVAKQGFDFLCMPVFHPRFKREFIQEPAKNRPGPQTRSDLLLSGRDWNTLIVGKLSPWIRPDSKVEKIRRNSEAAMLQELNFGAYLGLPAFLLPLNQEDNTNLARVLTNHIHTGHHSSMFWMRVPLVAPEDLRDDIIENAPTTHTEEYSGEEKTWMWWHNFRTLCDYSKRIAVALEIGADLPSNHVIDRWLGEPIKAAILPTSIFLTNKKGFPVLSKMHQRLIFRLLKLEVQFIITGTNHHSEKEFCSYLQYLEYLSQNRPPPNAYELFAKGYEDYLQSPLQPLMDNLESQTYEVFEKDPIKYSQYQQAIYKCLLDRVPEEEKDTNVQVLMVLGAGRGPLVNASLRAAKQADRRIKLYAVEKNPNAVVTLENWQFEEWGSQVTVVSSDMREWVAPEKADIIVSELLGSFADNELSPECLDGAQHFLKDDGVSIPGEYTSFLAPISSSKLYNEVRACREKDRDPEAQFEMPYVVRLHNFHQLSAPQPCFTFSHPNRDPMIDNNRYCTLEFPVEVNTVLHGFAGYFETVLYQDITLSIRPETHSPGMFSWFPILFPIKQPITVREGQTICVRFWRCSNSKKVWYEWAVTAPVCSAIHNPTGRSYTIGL
Sequence of human PRMT5/MEP50 (Q9BQA1 whole entry partner): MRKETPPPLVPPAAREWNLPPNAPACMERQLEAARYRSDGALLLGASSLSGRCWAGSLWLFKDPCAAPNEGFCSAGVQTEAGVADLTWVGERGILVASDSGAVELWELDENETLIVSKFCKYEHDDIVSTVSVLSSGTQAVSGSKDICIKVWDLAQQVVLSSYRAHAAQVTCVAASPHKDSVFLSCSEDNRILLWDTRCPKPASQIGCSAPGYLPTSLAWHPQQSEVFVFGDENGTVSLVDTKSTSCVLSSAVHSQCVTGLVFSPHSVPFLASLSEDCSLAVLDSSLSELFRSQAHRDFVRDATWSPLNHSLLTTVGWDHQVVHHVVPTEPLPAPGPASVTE

`O=C(NCC(O)CN1CCc2c([nH]c3ccccc23)C1)N1CCCC(c2ccccc2)C1` (stereo not drawn) [Example 24, N-(2-hydroxy-3-(1,3,4,9-tetrahydro-2H-pyrido[3,4-b]indol-2-yl)propyl)-3-phenylpiperidine-1-carboxamide] and `O=C(NCC(O)CN1CCc2c([nH]c3ccccc23)C1)N1CCC(c2ccccc2)C1` (stereo not drawn) [Example 23, N-(2-hydroxy-3-(1,3,4,9-tetrahydro-2H-pyrido[3,4-b]indol-2-yl)propyl)-3-phenyl pyrrolidine-1-carboxamide] are within 1.5-fold of each other in IC50: 53700 nM for the first, 75700 nM for the second.

`O=C(NCC(O)CN1CCc2c([nH]c3ccccc23)C1)c1ccc(C(=O)N2CCOCC2)cc1` (stereo not drawn) [Example 13, N-(2-hydroxy-3-{1H,2H,3H,4H,9H-pyrido[3,4-b]indol-2-yl}propyl)-4-[(morpholin-4-yl)carbonyl]benzamide] and `O=C(NCC(O)CN1CCc2c([nH]c3ccccc23)C1)c1ccc(C(=O)N2C3CCC2COC3)cc1` (stereo not drawn) [Example 14, N-(2-hydroxy-3-{1H,2H,3H,4H,9H-pyrido[3,4-b]indol-2-yl}propyl)-4-({3-oxa-8-azabicyclo[3.2.1]octan-8-yl}carbonyl)benzamide] are within 1.5-fold of each other in IC50: 2040 nM for the first, 1630 nM for the second.

Going from `O=C(NCC(O)CN1CCc2c([nH]c3ccccc23)C1)N1CCc2ccccc2C1` (stereo not drawn) [Example 22, N-(2-hydroxy-3-(1,3,4,9-tetrahydro-2H-pyrido[3,4-b]indol-2-yl)propyl)-3,4-dihydroisoquinoline-2(1H)-carboxamide] to `O=C(OCC(O)CN1CCc2c([nH]c3ccccc23)C1)N1CCc2ccccc2C1` (stereo not drawn) [Example 21, 2-Hydroxy-3-(1,3,4,9-tetrahydro-2H-pyrido[3,4-b]indol-2-yl)propyl 3,4-dihydroisoquinoline-2(1H)-carboxylate], the IC50 falls from 21000 nM to 6190 nM (3.4-fold). The second is the more potent here.

Compared with `CN1CCN(c2cc(C(=O)NCC(O)CN3CCc4[nH]c5ccccc5c4C3)cc(NC3CCC3)n2)CC1` (stereo not drawn) [Example 2, 2-(cyclobutylamino)-N-(2-hydroxy-3-{1H,2H,3H,4H,5H-pyrido[4,3-b]indol-2-yl}propyl)-6-(4-methylpiperazin-1-yl)pyridine-4-carboxamide], `CN1CCN(c2cc(C(=O)NCC(O)CN3CCc4c([nH]c5ccccc45)C3)cc(NC3CCC3)n2)CC1` (stereo not drawn) [Example 10, 2-(cyclobutylamino)-N-(2-hydroxy-3-{1H,2H,3H,4H,9H-pyrido[3,4-b]indol-2-yl}propyl)-6-(4-methylpiperazin-1-yl)pyridine-4-carboxamide] is 12-fold lower in IC50: 771 nM for the first, 67 nM for the second.

`CC(=O)N1CCC(Nc2cc(C(=O)NCCCN3CCc4c([nH]c5ccccc45)C3)ncn2)CC1` [Example 25, 6-((1-acetylpiperidin-4-yl)amino)-N-(3-(1,3,4,9-tetrahydro-2H-pyrido[3,4-b]indol-2-yl)propyl)pyrimidine-4-carboxamide] and `CC(=O)N1CCC(Nc2cc(C(=O)NCC(O)CN3CCc4c([nH]c5ccccc45)C3)ncn2)CC1` (stereo not drawn) [Example 12, 6-[(1-acetylpiperidin-4-yl)amino]-N-(2-hydroxy-3-{1H,2H,3H,4H,9H-pyrido[3,4-b]indol-2-yl}propyl)pyrimidine-4-carboxamide] are within 1.5-fold of each other in IC50: 99 nM for the first, 86 nM for the second.

First: O=C(OCC(O)CN1CCc2c([nH]c3ccccc23)C1)N1CCC(c2ccccc2)C1 (stereo not drawn) [Example 20, 2-hydroxy-3-(1,3,4,9-tetrahydro-2H-pyrido[3,4-b]indol-2-yl)propyl 3-phenylpyrrolidine-1-carboxylate]
Second: O=C(NCC(O)CN1CCc2c([nH]c3ccccc23)C1)c1cc(NC2CCC2)ncn1 (stereo not drawn) [Example 11, 6-(Cyclobutylamino)-N-(2-hydroxy-3-{1H,2H,3H,4H,9H-pyrido[3,4-b]indol-2-yl}propyl)pyrimidine-4-carboxamide]
The IC50 of the first is 23-fold higher: 10500 nM for the first, 459 nM for the second. The second is the more potent here.

First: Cn1c2c(c3ccccc31)CCN(CC(O)CNC(=O)c1cc(NC3CCC3)ncn1)C2 (stereo not drawn) [Example 17, 6-(cyclobutylamino)-N-(2-hydroxy-3-{9-methyl-1H,2H,3H,4H,9H-pyrido[3,4-b]indol-2-yl}propyl)pyrimidine-4-carboxamide]
Second: CC(=O)N1CCC(Nc2cc(C(=O)NCC(O)CN3CCc4c(n(C)c5ccccc45)C3)ncn2)CC1 (stereo not drawn) [Example 18, 6-[(1-acetylpiperidin-4-yl)amino]-N-(2-hydroxy-3-{9-methyl-1H,2H,3H,4H,9H-pyrido[3,4-b]indol-2-yl}propyl)pyrimidine-4-carboxamide]
The IC50 of the first is 3.9-fold higher: 8040 nM for the first, 2050 nM for the second. The second is the more potent here.

Compared with `CN1CCN(c2nc(NC3CCC3)cc(C(=O)NCC(O)CN3CCc4c([nH]c5ccccc45)C3)n2)CC1` (stereo not drawn) [Example 9, 6-(cyclobutylamino)-N-(2-hydroxy-3-{1H,2H,3H,4H,9H-pyrido[3,4-b]indol-2-yl}propyl)-2-(4-methylpiperazin-1-yl)pyrimidine-4-carboxamide], `CN1CCN(c2nc(NC3CCC3)cc(C(=O)NCC(O)CN3CCc4c(n(C)c5ccccc45)C3)n2)CC1` (stereo not drawn) [Example 15, 6-(cyclobutylamino)-N-(2-hydroxy-3-{9-methyl-1H,2H,3H,4H,9H-pyrido[3,4-b]indol-2-yl}propyl)-2-(4-methylpiperazin-1-yl)pyrimidine-4-carboxamide] is 3.2-fold higher in IC50: 148 nM for the first, 477 nM for the second.

Going from `CC(=O)N1CCC(Nc2cc(C(=O)NCC(O)CN3CCc4[nH]c5ccccc5c4C3)ncn2)CC1` (stereo not drawn) [Example 4, 6-[(1-acetylpiperidin-4-yl)amino]-N-(2-hydroxy-3-{1H,2H,3H,4H,5H-pyrido[4,3-b]indol-2-yl}propyl)pyrimidine-4-carboxamide] to `CC(=O)N1CCC(Nc2cc(C(=O)NC[C@H](O)CN3CCc4c([nH]c5ccccc45)C3)ncn2)CC1` [Example 26, (S)-6-((1-acetylpiperidin-4-yl)amino)-N-(2-hydroxy-3-(1,3,4,9-tetrahydro-2H-pyrido [3,4-b]indol-2-yl)propyl)pyrimidine-4-carboxamide], the IC50 falls from 542 nM to 10 nM (54-fold).

`CN1CCN(c2cc(C(=O)NCC(O)CN3CCc4c(n(C)c5ccccc45)C3)cc(NC3CCC3)n2)CC1` (stereo not drawn) [Example 16, 2-(cyclobutylamino)-N-(2-hydroxy-3-{9-methyl-1H,2H,3H,4H,9H-pyrido[3,4-b]indol-2-yl}propyl)-6-(4-methylpiperazin-1-yl)pyridine-4-carboxamide] and `CN1CCN(c2cc(C(=O)NCC(O)CN3CCc4c(c5ccccc5n4C)C3)cc(NC3CCC3)n2)CC1` (stereo not drawn) [Example 7, 2-(cyclobutylamino)-N-(2-hydroxy-3-{5-methyl-1H,2H,3H,4H,5H-pyrido[4,3-b]indol-2-yl}propyl)-6-(4-methylpiperazin-1-yl)pyridine-4-carboxamide] are within 1.5-fold of each other in IC50: 286 nM for the first, 322 nM for the second.

Compared with `CC(=O)N1CCC(Nc2cc(C(=O)NC[C@@H](O)CN3CCc4c([nH]c5ccccc45)C3)ncn2)CC1` [Example 27, (R)-6-((1-acetylpiperidin-4-yl)amino)-N-(2-hydroxy-3-(1,3,4,9-tetrahydro-2H-pyrido [3,4-b]indol-2-yl)propyl)pyrimidine-4-carboxamide], `CC(=O)N1CCC(Nc2cc(C(=O)NCC(O)CN3CCn4c(cc5ccccc54)C3)ncn2)CC1` (stereo not drawn) [Example 28, 6-((1-acetylpiperidin-4-yl)amino)-N-(3-(3,4-dihydropyrazino[1,2-a]indol-2(1H)-yl)-2-hydroxypropyl)pyrimidine-4-carboxamide] is 3.5-fold lower in IC50: 158 nM for the first, 45 nM for the second.

Compared with `CN1CCN(c2nc(NC3CCC3)cc(C(=O)NCC(O)CN3CCc4c(c5ccccc5n4C)C3)n2)CC1` (stereo not drawn) [Example 6, 6-(cyclobutylamino)-N-(2-hydroxy-3-{5-methyl-1H,2H,3H,4H,5H-pyrido[4,3-b]indol-2-yl}propyl)-2-(4-methylpiperazin-1-yl)pyrimidine-4-carboxamide], `Cn1c2c(c3ccccc31)CCN(CC(O)CNC(=O)c1ccc(C(=O)N3C4CCC3COC4)cc1)C2` (stereo not drawn) [Example 19, N-(2-hydroxy-3-{9-methyl-1H,2H,3H,4H,9H-pyrido[3,4-b]indol-2-yl}propyl)-4-({3-oxa-8-azabicyclo[3.2.1]octan-8-yl}carbonyl)benzamide] is 250-fold higher in IC50: 108 nM for the first, 26900 nM for the second.
